Positions of bridges follow the written chain, without caps; N, C: chain ends. Non-standard residues stand in square brackets, D forms with d. Residues, ends and D or L forms follow the SMILES beside them.
What was measured:
Gαs/Gβγ = molecular target: T1, Gαs/Gβγ (Homo sapiens, UniProt P63092); experiment: BRET2 based Gα Gβγ interaction assay in HEK293 cells (β2AR, isoproterenol); format: cell-based; details: pretreated 25 μM, 16 hours, 10 nM isoproterenol
T1 construct: expressed in transfected cells; host or cells: HEK293 cells
Text: We next tested GD20-F10L in HEK 293 cells overexpressing both β2AR and Gαs/Gβγ. Rluc8 was inserted within a flexible loop region between the αB-αC helices of Gαs (FIG. 23J) and GFP2 was inserted at the N-terminus of Gγ2 to capture Gαβγ heterotrimer interaction. A decrease in the bioluminescence resonance energy transfer (BRET2) signal between labeled G protein subunits can detect Gαβγ dissociation (FIG. 21C) in live cells (Olsen et al., 2020). We examined Gαβγ trimer dissociation elicited by the GPCR agonist at various concentrations of cyclic peptides by monitoring the net BRET2 signal. In cells that were transiently transfected with a Gαs-coupled β2-adrenergic receptor (β2AR), GαsShort_Rluc8, […], and Gγ-GFP2, ISO application stimulated a basal net BRET response. […] This effect was GD20-F10L dose dependent (FIGS. 21D-21E). […] To assess the specificity of GD20-F10L at the G protein level, we tested it against the Gαi/Gβγ interaction. […]
8 hours after plating in 96-well assay plates, media was replaced with 100 μL of cyclic peptide dilutions in DMEM with 1% dialyzed FBS. […] Plates were then read in a TECAN Spark 20 M plate reader with 395 nm (RLuc8-coelenterazine 400a) and 510 nm (GFP2) emission filters, at integration times of 1 s per well. Plates were read serially six times, and measurements from the fourth read were used in all analyses. […]

Gαi = Gαi (Homo sapiens, UniProt P63096); experiment: Nucleotide exchange step (GDP dissociation / GTPγS binding); format: biochemical; details: compared with Gαs
Method: Gα proteins were diluted to 400 nM in the EDTA buffer (20 mM HEPES 7.5, 150 mM NaCl, 1 mM EDTA-Na 8.0, 2 mM DTT). [^3H]GDP (1 mCi/mL, 25.2 μM) was added to a final concentration of 1.2 μM, followed by cyclic peptides addition. After incubation at 20° C. for 30 minutes, the same volume of assay buffer ([…] HEPES-Na 7.5, 150 mM NaCl, 2 mM MgCl2, and 1 mM GDP) was added to initiate [^3H]GDP dissociation. At various points, […] was removed and mixed with 390 μL of ice-cold wash buffer (20 mM HEPES 7.5, 150 mM NaCl, 20 mM MgCl2). The mixture was immediately filtered through a mixed cellulose membrane (25 mm, 0.22 μm) held by a microanalysis filter holder (EMD Millipore). The membrane was washed by ice-cold wash buffer (500 μL×3), put in a 6-mL plastic vial and air-dried (room temperature 1.5 h). 5 mL of CytoScint-ES Liquid Scintillation Cocktail was added to each vial. After incubation overnight at room temperature, the vial was used for liquid scintillation counting with a LS 6500 Multi-Purpose Scintillation Counter.
Gα proteins were diluted to 10 μM with dilution buffer (20 mM HEPES 7.5, 150 mM NaCl, 1 mM MgCl2, 2 mM DTT, and 20 μM GDP) and incubated with 5× stocks of cyclic peptides at room temperature for 2 hours. GTPγS binding was initiated by mixing with the reaction buffer at room temperature (50 nM [35S]GTPγS and 100 μM GTPγS in dilution buffer) at room temperature. […]

T1 sequence (P63092 1-380 isoform P63092-2): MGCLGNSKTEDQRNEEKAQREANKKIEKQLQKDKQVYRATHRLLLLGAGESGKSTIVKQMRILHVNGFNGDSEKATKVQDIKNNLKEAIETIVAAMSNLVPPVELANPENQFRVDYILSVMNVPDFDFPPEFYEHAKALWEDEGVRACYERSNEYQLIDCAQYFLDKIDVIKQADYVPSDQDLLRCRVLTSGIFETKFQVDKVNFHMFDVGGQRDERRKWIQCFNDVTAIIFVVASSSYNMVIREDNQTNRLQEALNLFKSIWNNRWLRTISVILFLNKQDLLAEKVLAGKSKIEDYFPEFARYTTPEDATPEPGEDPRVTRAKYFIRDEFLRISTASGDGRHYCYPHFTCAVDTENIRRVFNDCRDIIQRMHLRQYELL
Gαi, sequence (P63096 whole entry): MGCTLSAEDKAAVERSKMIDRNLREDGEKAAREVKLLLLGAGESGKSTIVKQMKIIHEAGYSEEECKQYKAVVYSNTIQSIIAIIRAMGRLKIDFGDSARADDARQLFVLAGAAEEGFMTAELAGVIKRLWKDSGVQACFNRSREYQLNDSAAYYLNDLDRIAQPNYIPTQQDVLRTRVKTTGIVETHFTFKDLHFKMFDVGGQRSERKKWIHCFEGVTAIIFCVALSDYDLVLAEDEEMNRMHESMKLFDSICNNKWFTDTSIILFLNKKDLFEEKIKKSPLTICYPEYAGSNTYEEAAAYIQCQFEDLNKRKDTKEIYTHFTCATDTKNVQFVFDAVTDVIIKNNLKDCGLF

Row | Compound | net BRET2 signal between Gαs and Gγ after isoproterenol (Gαs/Gβγ) | sensitivity of the nucleotide exchange step of Gαi (Gαi)
1 | CC[C@H](C)[C@@H]1NC(=O)[C@H](CC(C)C)NC(=O)[C@@H](Cc2ccc(O)cc2)NC(=O)CSC[C@@H](C(=O)NCC(N)=O)NC(=O)[C@@H]2CCCN2C(=O)[C@H](CC(C)C)NC(=O)[C@H](CC(N)=O)NC(=O)[C@H](CC(C)C)NC(=O)[C@H](C)NC(=O)[C@H](Cc2c[nH]c3ccccc23)NC(=O)[C@H](CCC(N)=O)NC(=O)[C@H](CCCNC(=N)N)NC(=O)[C@H](Cc2ccccc2)NC(=O)[C@H]([C@@H](C)O)NC1=O [GD20-F10L] ({CH2CO}-[dY]LITFRQWALNLPCG-NH2; thioether N-14) | induced a greater net BRET2 signal | 
2 | CC[C@H](C)[C@@H]1NC(=O)[C@H](C)NC(=O)[C@H](Cc2ccc(O)cc2)NC(=O)[C@H](C(C)C)NC(=O)[C@H](CO)NC(=O)[C@H](CCC(=O)O)NC(=O)[C@H](Cc2ccccc2)NC(=O)[C@@H](Cc2ccc(O)cc2)NC(=O)CSC[C@@H](C(=O)NCC(N)=O)NC(=O)[C@H](CC(C)C)NC(=O)[C@H]([C@@H](C)O)NC(=O)CNC(=O)[C@H](Cc2c[nH]c3ccccc23)NC1=O [GN13] ({CH2CO}-[dY]FESVYAIWGTLCG-NH2; thioether N-13) |  | much less sensitive

From patent US20240336657A1, “G-ALPHA-S PEPTIDE INHIBITORS AND USES THEREOF” (The Regents of the University of California, priority 2021, published 2024)
